{"source": "patent US20170143674A1", "about": "“Use of Glutaryl Histamine for the Treatment of Respiratory Tract Diseases” (LTD \"VALENTA-INTELLEKT\", priority 2011, published 2017)", "key": {"[1]": {"tested_on": "Staphylococcus aureus (mouse-adapted strain 10)", "assay": "animal or person", "assay_type": "in vivo, mice", "conditions": "for Mortality rate (%) / Survival rate (%): tenth day", "protocol": "The tested medicament was glutaryl histamine in doses of 15, 30 and 45 mg/kg. Solutions of the tested medicament for oral administration were prepared ex tempore. Ampicillin (in intravenous administration) was used as a therapeutic preparation since this substance was the most experimentally studied antibiotic approved in clinical practice many years ago.\nStaphylococcus aureus (mouse-adapted strain 10) was used as an infectious agent. Mice were infected intravenously.\nFirstly, there was determined a lethal dose (LD100) of staphylococcus when intravenously administered to this line of mice with a certain weight. Fatal cases among mice were registered every day for ten days. The lethal dose was 3×10^8 CFU/mouse. […] For this purpose, mice were housed into cages (10 animals per cage) and infected with a lethal dose of staphylococcus. One hour later, each mouse was intravenously administered ampicillin in doses of 10, 20, 30, 40, and 50 mg/kg. A group of mice infected with a lethal dose of staphylococcus without the treatment was considered as a control group. Fatal cases among mice were registered every day for ten days.\nThe next step of the experiment was to study an effect of combined administration of glutaryl histamine with ampicillin on a model of staphylococcal sepsis in mice.\nIn the experiment, mice were housed in following groups (10 animals per cage):\nGlutaryl histamine was administered orally in the corresponding doses to mice of groups 3, 4, 5, 6, 7, and 8 for 5 days. Five day after, all groups of mice were intravenously administered 0.2 ml of Staphylococcus aureus in the lethal dose. One hour after infection, mice of groups 2, 6, 7 and 8 were […] administered 0.2 ml of ampicillin in a dose of 20 mg/kg. After infection and administration of ampicillin, mice of groups 3-8 were administered glutaryl histamine for additional 5 days. During the experiment, the animals were observed every day, and fatal cases were registered."}, "[2]": {"tested_on": "lacunar tonsillitis", "assay": "open randomized comparative trial in lacunar tonsillitis", "assay_type": "in vivo, human", "conditions": "90 mg per day for 5 days with standard therapy", "protocol": "The effectiveness of glutaryl histamine for the treatment of lacunar tonsillitis was studied in an open randomized and comparative trial.\nThe trial included 60 patients which were under medical supervision. When admitted to hospital, patients were randomized into two groups by a random sampling technique. The patients of the first group (30 subjects) received glutaryl histamine in an amount of 90 mg (1 pill) per day for 5 days (450 mg course dose) and standard therapy comprising antibacterial medicaments (penicillin 1 g I.M. 4 times a day or cefasoline 1 g I.M. 3 times a day for 7 days) and nosotropic agents. The patients of the second group (30 subjects) received only standard therapy.\nLaboratory analysis included: general blood test, determination of C-reactive protein, and microbiological analysis of tonsil smears. Laboratory data were analyzed on day 6 of the treatment. […]\nStatistical treatment of the obtained results. Values of quantitative variables were expressed as M±SE, wherein M is a mean value, and SE is a standard error of the mean. […]"}, "[3]": {"tested_on": "LPS-induced tonsillitis", "assay": "LPS-induced tonsillitis model (E. coli LPS into cervical lymph node)", "assay_type": "in vivo", "conditions": "for Area of germinal centers of lymphoid follicles in affected lymph nodes / TP (blood total protein) / Weight difference between affected and intact lymph nodes: M ± m", "protocol": "This example is aimed at evaluating the activity of glutaryl histamine on experimental model of tonsillitis. LPS-induced tonsillitis is one of the most adequate models for the study of the pathogenesis, pathomorphological changes and action of pharmacological medicaments on the course of this disease.\nTonsillitis was induced under anesthesia by administration of a solution of E. coli lipopolysaccharide (LPS) (Sigma) in normal physiological solution in a dose of 20 μg/kg, by 10 μl to the right upper lymph node (Inn. Cervicales superficiales). After administration, the lymph nodes were put under superficial neck muscles and then the skin was stitched. The wound was treated with streptocide. The animal was placed into a post-operation cage.\nThe tested medicament was administered once daily in a given dose strictly at the stated time for three days before the induction of tonsillitis and 10 days after. Normal saline solution was used as placebo.\nImmediately after euthanasia, the animals were subjected to necropsy, the affected and intact lymph nodes were removed and weighed.\nThe lymph nodes derived from the half of animals from each group were being frozen after removal in a refrigerating chamber at −25° C. for 72 hours. Then the lymph nodes were lyophilized.\nIn a half of animals from each group (7), the affected lymph nodes were subjected to histological analysis. After euthanasia, intact and affected lymph nodes were removed from each animal. […] Sections with a thickness of 4 to 6 μm were prepared from the paraffin blocks, stained with hematoxylin and eosin to reveal typical pathological processes and study required parameters using light-optical microscope Leica DM LS (magnification 200× and 400×).\nWeights of intact and affected lymph nodes were compared and the nodes also were lyophilized to evaluate an effect of the medicaments on the swelling degree and adequacy of the model of tonsillitis.\nThe protein-synthetic function of the liver and a systemic effect of the medicaments on organism were evaluated in total protein (TP) analysis."}}, "note": "Entries after “also recorded” stand apart in the source; their conditions may differ. Marks after values point to notes of the source that are not given here.", "data": [{"smiles": "CC1(C)S[C@@H]2[C@H](NC(=O)[C@H](N)c3ccccc3)C(=O)N2[C@H]1C(=O)O", "note": "[ampicillin]", "values": [{"measurement": "ED50", "setting": "[1]; Staphylococcus aureus, iv, read-out: ED50 (50% effective dose)", "value": 17.3, "unit": "mg/kg"}, {"measurement": "Mortality rate (%)", "setting": "[1]; ampicillin 20 mg/kg", "value": 50, "unit": "%"}, {"measurement": "Survival rate (%)", "setting": "[1]; ampicillin 20 mg/kg", "value": 50, "unit": "%"}, {"measurement": "died/survived animals", "setting": "[1]; day 1, ampicillin 20 mg/kg", "value": "0/10"}, {"measurement": "died/survived animals", "setting": "[1]; day 2, ampicillin 20 mg/kg", "value": "0/10"}, {"measurement": "died/survived animals", "setting": "[1]; day 3, ampicillin 20 mg/kg", "value": "0/10"}, {"measurement": "died/survived animals", "setting": "[1]; day 4, ampicillin 20 mg/kg", "value": "1/9"}, {"measurement": "died/survived animals", "setting": "[1]; day 5, ampicillin 20 mg/kg", "value": "2/8"}, {"measurement": "died/survived animals", "setting": "[1]; day 6, ampicillin 20 mg/kg", "value": "3/7"}, {"measurement": "died/survived animals", "setting": "[1]; day 7, ampicillin 20 mg/kg", "value": "4/6"}, {"measurement": "died/survived animals", "setting": "[1]; day 8, ampicillin 20 mg/kg", "value": "4/6"}, {"measurement": "died/survived animals", "setting": "[1]; day 9, ampicillin 20 mg/kg", "value": "5/5"}, {"measurement": "died/survived animals", "setting": "[1]; day 10, ampicillin 20 mg/kg", "value": "5/5"}]}, {"smiles": "O=C(O)CCCC(=O)NCCc1c[nH]cn1", "note": "[glutaryl histamine]", "values": [{"measurement": "tolerability / undesirable symptoms", "setting": "[2]", "value": "well tolerated; also recorded: none of the cases had undesirable symptoms"}, {"measurement": "died/survived animals", "setting": "[1]; day 1, glutaryl histamine 15 mg/kg", "value": "0/10"}, {"measurement": "died/survived animals", "setting": "[1]; day 1, glutaryl histamine 30 mg/kg", "value": "0/10"}, {"measurement": "died/survived animals", "setting": "[1]; day 1, glutaryl histamine 45 mg/kg", "value": "0/10"}, {"measurement": "died/survived animals", "setting": "[1]; day 2, glutaryl histamine 15 mg/kg", "value": "0/10"}, {"measurement": "died/survived animals", "setting": "[1]; day 2, glutaryl histamine 30 mg/kg", "value": "0/10"}, {"measurement": "died/survived animals", "setting": "[1]; day 2, glutaryl histamine 45 mg/kg", "value": "0/10"}, {"measurement": "died/survived animals", "setting": "[1]; day 3, glutaryl histamine 15 mg/kg", "value": "0/10"}, {"measurement": "died/survived animals", "setting": "[1]; day 3, glutaryl histamine 30 mg/kg", "value": "0/10"}, {"measurement": "died/survived animals", "setting": "[1]; day 3, glutaryl histamine 45 mg/kg", "value": "1/9"}, {"measurement": "died/survived animals", "setting": "[1]; day 4, glutaryl histamine 15 mg/kg", "value": "1/9"}, {"measurement": "died/survived animals", "setting": "[1]; day 4, glutaryl histamine 30 mg/kg", "value": "1/9"}, {"measurement": "died/survived animals", "setting": "[1]; day 4, glutaryl histamine 45 mg/kg", "value": "1/9"}, {"measurement": "died/survived animals", "setting": "[1]; day 5, glutaryl histamine 15 mg/kg", "value": "2/8"}, {"measurement": "died/survived animals", "setting": "[1]; day 5, glutaryl histamine 30 mg/kg", "value": "2/8"}, {"measurement": "died/survived animals", "setting": "[1]; day 5, glutaryl histamine 45 mg/kg", "value": "3/7"}, {"measurement": "died/survived animals", "setting": "[1]; day 6, glutaryl histamine 15 mg/kg", "value": "4/6"}, {"measurement": "died/survived animals", "setting": "[1]; day 6, glutaryl histamine 30 mg/kg", "value": "3/7"}, {"measurement": "died/survived animals", "setting": "[1]; day 6, glutaryl histamine 45 mg/kg", "value": "4/6"}, {"measurement": "died/survived animals", "setting": "[1]; day 7, glutaryl histamine 15 mg/kg", "value": "5/5"}, {"measurement": "died/survived animals", "setting": "[1]; day 7, glutaryl histamine 30 mg/kg", "value": "4/6"}, {"measurement": "died/survived animals", "setting": "[1]; day 7, glutaryl histamine 45 mg/kg", "value": "5/5"}, {"measurement": "died/survived animals", "setting": "[1]; day 8, glutaryl histamine 15 mg/kg", "value": "6/4"}, {"measurement": "died/survived animals", "setting": "[1]; day 8, glutaryl histamine 30 mg/kg", "value": "6/4"}, {"measurement": "died/survived animals", "setting": "[1]; day 8, glutaryl histamine 45 mg/kg", "value": "6/4"}, {"measurement": "died/survived animals", "setting": "[1]; day 9, glutaryl histamine 15 mg/kg", "value": "6/4"}, {"measurement": "died/survived animals", "setting": "[1]; day 9, glutaryl histamine 30 mg/kg", "value": "7/3"}, {"measurement": "died/survived animals", "setting": "[1]; day 9, glutaryl histamine 45 mg/kg", "value": "7/3"}, {"measurement": "died/survived animals", "setting": "[1]; day 10, glutaryl histamine 15 mg/kg", "value": "7/3"}, {"measurement": "died/survived animals", "setting": "[1]; day 10, glutaryl histamine 30 mg/kg", "value": "7/3"}, {"measurement": "died/survived animals", "setting": "[1]; day 10, glutaryl histamine 45 mg/kg", "value": "8/2"}, {"measurement": "Mortality rate (%)", "setting": "[1]; glutaryl histamine 15 mg/kg", "value": 70, "unit": "%"}, {"measurement": "Survival rate (%)", "setting": "[1]; glutaryl histamine 15 mg/kg", "value": 30, "unit": "%"}, {"measurement": "Mortality rate (%)", "setting": "[1]; glutaryl histamine 30 mg/kg", "value": 70, "unit": "%"}, {"measurement": "Survival rate (%)", "setting": "[1]; glutaryl histamine 30 mg/kg", "value": 30, "unit": "%"}, {"measurement": "Mortality rate (%)", "setting": "[1]; glutaryl histamine 45 mg/kg", "value": 80, "unit": "%"}, {"measurement": "Survival rate (%)", "setting": "[1]; glutaryl histamine 45 mg/kg", "value": 20, "unit": "%"}, {"measurement": "Mortality rate (%)", "setting": "[3]; Glutaryl histamine 9 mg/kg", "value": 0, "unit": "%"}, {"measurement": "The number of died animals/initial number of animals in a group", "setting": "[3]; Glutaryl histamine 9 mg/kg", "value": "0/14"}, {"measurement": "Area of germinal centers of lymphoid follicles in affected lymph nodes", "setting": "[3]; Glutaryl histamine 9 mg/kg", "value": "0.067 ± 0.006* mm^2"}, {"measurement": "TP (blood total protein)", "setting": "[3]; Glutaryl histamine 9 mg/kg", "value": "67.2 ± 1.1", "unit": "g/L"}, {"measurement": "Weight difference between affected and intact lymph nodes", "setting": "[3]; Glutaryl histamine 9 mg/kg", "value": "13.0 ± 1.3", "unit": "mg"}, {"measurement": "Mortality rate (%)", "setting": "[3]; Glutaryl histamine 27 mg/kg", "value": 0, "unit": "%"}, {"measurement": "The number of died animals/initial number of animals in a group", "setting": "[3]; Glutaryl histamine 27 mg/kg", "value": "0/14"}, {"measurement": "Area of germinal centers of lymphoid follicles in affected lymph nodes", "setting": "[3]; Glutaryl histamine 27 mg/kg", "value": "0.048 ± 0.003** mm^2"}, {"measurement": "TP (blood total protein)", "setting": "[3]; Glutaryl histamine 27 mg/kg", "value": "65.0 ± 0.6* ** g/l"}, {"measurement": "Weight difference between affected and intact lymph nodes", "setting": "[3]; Glutaryl histamine 27 mg/kg", "value": "8.8 ± 1.1* ** mg"}, {"measurement": "Area of germinal centers of lymphoid follicles in affected lymph nodes", "setting": "[3]; Glutaryl histamine 45 mg/kg", "value": "0.066 ± 0.007* mm^2"}, {"measurement": "TP (blood total protein)", "setting": "[3]; Glutaryl histamine 45 mg/kg", "value": "65.1 ± 0.8* ** g/l"}]}]}
